Experiments:
[1] = target: T1, AR-VP16 (Homo sapiens, UniProt P10275); experiment: AR-VP16 DNA Binding Assay, agonist mode (HepG2 cells); type: cell-based; settings: Emax >20x DMSO control = agonist
T1 sequence (P10275 560-920 limits assumed): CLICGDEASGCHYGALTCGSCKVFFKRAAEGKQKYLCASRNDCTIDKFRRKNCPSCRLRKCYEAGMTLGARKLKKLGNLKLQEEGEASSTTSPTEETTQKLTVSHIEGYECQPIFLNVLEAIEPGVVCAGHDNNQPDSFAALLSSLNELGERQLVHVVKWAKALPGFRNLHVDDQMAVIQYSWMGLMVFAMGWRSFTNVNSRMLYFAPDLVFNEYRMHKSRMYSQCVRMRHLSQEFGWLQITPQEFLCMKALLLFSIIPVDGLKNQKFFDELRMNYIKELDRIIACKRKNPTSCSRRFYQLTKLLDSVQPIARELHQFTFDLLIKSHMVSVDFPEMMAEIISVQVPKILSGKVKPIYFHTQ

[2] = target: T1, AR-VP16; experiment: AR-VP16 DNA Binding Assay, antagonist mode (HepG2 cells, 0.1 nM R1881); type: cell-based
Method in brief: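 Transfected HepG2 cells expressing AR-VP16 received serially diluted compound in charcoal-stripped-serum RPMI the day after transfection, with 0.1 nM R1881 (final) added only for antagonist testing. After 48 h, cells were lysed for measurement.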

Compound | ARVP16 DNA Binding Assay (Agonist mode): Agonist? [1] | IC50 [2] [µM]
O=C1N(c2ccc3nnc(C(F)(F)F)n3n2)C(=S)N(c2ccc(O)c(F)c2)C12CCC2 [Compound 117, 5-(3-Fluoro-4-hydroxyphenyl)-6-thioxo-7-(3-(trifluoromethyl)-[1,2,4]triazolo[4,3-b]pyridazin-6-yl)-5,7-diazaspiro[3.4]octan-8-one] | No (Agonist defined as a compound whose Emax in the ARVP16 DNA Binding Assay (Agonist mode) is >20x DMSO control) | > 1
CN(C)S(=O)(=O)c1ccc(N2C(=S)N(c3cnc(C#N)c(C(F)(F)F)c3)C(=O)C23CCC3)cc1 [Compound 121, 4-(7-(6-Cyano-5-(trifluoromethyl)pyridin-3-yl)-8-oxo-6-thioxo-5,7-diazaspiro[3.4]octan-5-yl)-N,N-dimethylbenzenesulfonamide] | No (Agonist defined as a compound whose Emax in the ARVP16 DNA Binding Assay (Agonist mode) is >20x DMSO control) | > 1
COC(=O)CCCc1ccc(N2C(=S)N(c3cnc(C#N)c(C(F)(F)F)c3)C(=O)C23CCC3)cc1 [Compound 122, Methyl 4-(4-(7-(6-cyano-5-(trifluoromethyl)pyridin-3-yl)-8-oxo-6-thioxo-5,7-diazaspiro[3.4]octan-5-yl)phenyl)butanoate] | No (Agonist defined as a compound whose Emax in the ARVP16 DNA Binding Assay (Agonist mode) is >20x DMSO control) | > 1
N#Cc1ncc(N2C(=O)C3(CCC3)N(c3ccc(F)c(O)c3)C2=S)cc1C(F)(F)F [Compound 123, 5-(5-(4-Fluoro-3-hydroxyphenyl)-8-oxo-6-thioxo-5,7-diazaspiro[3.4]octan-7-yl)-3-(trifluoromethyl)picolinonitrile] | No (Agonist defined as a compound whose Emax in the ARVP16 DNA Binding Assay (Agonist mode) is >20x DMSO control) | > 1
N#Cc1ncc(N2C(=O)C3(CCC3)N(c3ccc4ncoc4c3)C2=S)cc1C(F)(F)F [Compound 125, 5-(5-(Benzo[d]oxazol-6-yl)-8-oxo-6-thioxo-5,7-diazaspiro[3.4]octan-7-yl)-3-(trifluoromethyl)picolinonitrile] | No (Agonist defined as a compound whose Emax in the ARVP16 DNA Binding Assay (Agonist mode) is >20x DMSO control) | < 1
Cn1nccc1CCOc1ccc(N2C(=S)N(c3cnc(C#N)c(C(F)(F)F)c3)C(=O)C23CCC3)cc1F [Compound 126, 5-(5-(3-Fluoro-4-(2-(1-methyl-1H-pyrazol-5-yl)ethoxy)phenyl)-8-oxo-6-thioxo-5,7-diazaspiro[3.4]octan-7-yl)-3-(trifluoromethyl)picolinonitrile] | Yes (Agonist defined as a compound whose Emax in the ARVP16 DNA Binding Assay (Agonist mode) is >20x DMSO control) | < 1
N#Cc1ncc(N2C(=O)C3(CCC3)N(c3ccc(OCc4ccccc4)c(F)c3)C2=S)cc1C(F)(F)F [Compound 128, 5-(5-(4-(Benzyloxy)-3-fluorophenyl)-8-oxo-6-thioxo-5,7-diazaspiro[3.4]octan-7-yl)-3-(trifluoromethyl)picolinonitrile] | No (Agonist defined as a compound whose Emax in the ARVP16 DNA Binding Assay (Agonist mode) is >20x DMSO control) | < 1
N#Cc1ncc(N2C(=O)C3(CCC3)N(c3ccc(OCCc4ccccn4)c(F)c3)C2=S)cc1C(F)(F)F [Compound 130, 5-(5-(3-Fluoro-4-(2-(pyridin-2-yl)ethoxy)phenyl)-8-oxo-6-thioxo-5,7-diazaspiro[3.4]octan-7-yl)-3-(trifluoromethyl)picolinonitrile] | No (Agonist defined as a compound whose Emax in the ARVP16 DNA Binding Assay (Agonist mode) is >20x DMSO control) | < 1
COCCOc1ccc(N2C(=S)N(c3cnc(C#N)c(C(F)(F)F)c3)C(=O)C23CCC3)cc1F [Compound 131, 5-(5-(3-Fluoro-4-(2-methoxyethoxy)phenyl)-8-oxo-6-thioxo-5,7-diazaspiro[3.4]octan-7-yl)-3-(trifluoromethyl)picolinonitrile] | No (Agonist defined as a compound whose Emax in the ARVP16 DNA Binding Assay (Agonist mode) is >20x DMSO control) | < 1
CCOC(=O)COc1ccc(N2C(=S)N(c3cnc(C#N)c(C(F)(F)F)c3)C(=O)C23CCC3)cc1F [Compound 132, Ethyl 2-(4-(7-(6-cyano-5-(trifluoromethyl)pyridin-3-yl)-8-oxo-6-thioxo-5,7-diazaspiro[3.4]octan-5-yl)-2-fluorophenoxy)acetate] | No (Agonist defined as a compound whose Emax in the ARVP16 DNA Binding Assay (Agonist mode) is >20x DMSO control) | > 1
COCCCCOc1ccc(N2C(=S)N(c3cnc(C#N)c(C(F)(F)F)c3)C(=O)C23CCC3)cc1F [Compound 133, 5-(5-(3-Fluoro-4-(4-methoxybutoxy)phenyl)-8-oxo-6-thioxo-5,7-diazaspiro[3.4]octan-7-yl)-3-(trifluoromethyl)picolinonitrile] | No (Agonist defined as a compound whose Emax in the ARVP16 DNA Binding Assay (Agonist mode) is >20x DMSO control) | < 1
N#Cc1ncc(N2C(=O)C3(CCC3)N(c3ccc(OCCCCOCc4ccccc4)c(F)c3)C2=S)cc1C(F)(F)F [Compound 136, 5-(5-(4-(4-(Benzyloxy)butoxy)-3-fluorophenyl)-8-oxo-6-thioxo-5,7-diazaspiro[3.4]octan-7-yl)-3-(trifluoromethyl)picolinonitrile] | No (Agonist defined as a compound whose Emax in the ARVP16 DNA Binding Assay (Agonist mode) is >20x DMSO control) | < 1
N#Cc1ncc(N2C(=O)C3(CCC3)N(c3ccc(OCCCc4ccccc4)c(F)c3)C2=S)cc1C(F)(F)F [Compound 138, 5-(5-(3-Fluoro-4-(3-phenylpropoxy)phenyl)-8-oxo-6-thioxo-5,7-diazaspiro[3.4]octan-7-yl)-3-(trifluoromethyl)picolinonitrile] | No (Agonist defined as a compound whose Emax in the ARVP16 DNA Binding Assay (Agonist mode) is >20x DMSO control) | > 1
N#Cc1ncc(N2C(=O)C3(CCC3)N(c3ccc(OCCc4cccc5ccccc45)c(F)c3)C2=S)cc1C(F)(F)F [Compound 140, 5-(5-(3-Fluoro-4-(2-(naphthalen-1-yl)ethoxy)phenyl)-8-oxo-6-thioxo-5,7-diazaspiro[3.4]octan-7-yl)-3-(trifluoromethyl)picolinonitrile] | No (Agonist defined as a compound whose Emax in the ARVP16 DNA Binding Assay (Agonist mode) is >20x DMSO control) | > 1
N#Cc1ncc(N2C(=O)C3(CCC3)N(c3ccc(OCCc4ccc5ccccc5c4)c(F)c3)C2=S)cc1C(F)(F)F [Compound 141, 5-(5-(3-Fluoro-4-(2-(naphthalen-2-yl)ethoxy)phenyl)-8-oxo-6-thioxo-5,7-diazaspiro[3.4]octan-7-yl)-3-(trifluoromethyl)picolinonitrile] | Yes (Agonist defined as a compound whose Emax in the ARVP16 DNA Binding Assay (Agonist mode) is >20x DMSO control) | > 1
N#Cc1ncc(N2C(=O)C3(CCC3)N(c3ccc(OCCN4CCOCC4)c(F)c3)C2=S)cc1C(F)(F)F [Compound 143, 5-(5-(3-Fluoro-4-(2-morpholinoethoxy)phenyl)-8-oxo-6-thioxo-5,7-diazaspiro[3.4]octan-7-yl)-3-(trifluoromethyl)picolinonitrile] | Yes (Agonist defined as a compound whose Emax in the ARVP16 DNA Binding Assay (Agonist mode) is >20x DMSO control) | < 1
N#Cc1ncc(N2C(=O)C3(CCC3)N(c3ccc(OCCc4cccnc4)c(F)c3)C2=S)cc1C(F)(F)F [Compound 144, 5-(5-(3-Fluoro-4-(2-(pyridin-3-yl)ethoxy)phenyl)-8-oxo-6-thioxo-5,7-diazaspiro[3.4]octan-7-yl)-3-(trifluoromethyl)picolinonitrile] | Yes (Agonist defined as a compound whose Emax in the ARVP16 DNA Binding Assay (Agonist mode) is >20x DMSO control) | < 1
N#Cc1ncc(N2C(=O)C3(CCC3)N(c3ccc(OCCn4cccc4)c(F)c3)C2=S)cc1C(F)(F)F [Compound 146, 5-(5-(4-(2-(1H-Pyrrol-1-yl)ethoxy)-3-fluorophenyl)-8-oxo-6-thioxo-5,7-diazaspiro[3.4]octan-7-yl)-3-(trifluoromethyl)picolinonitrile] | No (Agonist defined as a compound whose Emax in the ARVP16 DNA Binding Assay (Agonist mode) is >20x DMSO control) | < 1
CN1CCN(CCOc2ccc(N3C(=S)N(c4cnc(C#N)c(C(F)(F)F)c4)C(=O)C34CCC4)cc2F)CC1 [Compound 149, 5-(5-(3-Fluoro-4-(2-(4-methylpiperazin-1-yl)ethoxy)phenyl)-8-oxo-6-thioxo-5,7-diazaspiro[3.4]octan-7-yl)-3-(trifluoromethyl)picolinonitrile] | No (Agonist defined as a compound whose Emax in the ARVP16 DNA Binding Assay (Agonist mode) is >20x DMSO control) | < 1
N#Cc1ncc(N2C(=O)C3(CCC3)N(c3ccc(OCCCN4CCOCC4)c(F)c3)C2=S)cc1C(F)(F)F [Compound 150, 5-(5-(3-Fluoro-4-(3-morpholinopropoxy)phenyl)-8-oxo-6-thioxo-5,7-diazaspiro[3.4]octan-7-yl)-3-(trifluoromethyl)picolinonitrile] | Yes (Agonist defined as a compound whose Emax in the ARVP16 DNA Binding Assay (Agonist mode) is >20x DMSO control) | < 1

From patent US9108944B2, “Androgen receptor modulators and uses thereof” (ARAGON PHARMACEUTICALS, INC., priority 2010, dated 2015)
